Measured values as given in patent US7772245B2, “Inhibitors of histone deacetylase” (Miikana Therapeutics, Inc., priority 2005, dated 2010).

Assays:
[1] = test system: HDAC; assay: In vitro fluorescent histone deacetylase assay (Biomol HDAC fluorescent activity kit, HeLa cell nuclear extract); assay type: biochemical; details: 100 μM compound; HeLa cell nuclear extract as source of HDAC activity; 50 μM substrate, 10 min at room temperature
Procedure: Histone deacetylase (HDAC) activity assays were performed using the HDAC fluorescent activity assay/drug discovery kit (Biomol Research Laboratories, Plymouth Meeting, Pa.) essentially according to the manufacturer's instructions. The included HeLa cell nuclear extract, which contains a mosaic of HDAC enzymes and other nuclear factors, was used as the source of HDAC activity. The final substrate concentration in the assay mixture was 50 μM. The reaction was allowed to proceed for 10 min at room temperature before stopping the reaction. Test compounds were prepared as 20 mM stock solutions in DMSO (Molecular Biology grade, Sigma-Aldrich Co., St. Louis, Mo.) and stored at −70° C. Serial dilutions of test compounds were prepared in assay buffer immediately prior to testing. DMSO was determined in a separate trial to have no significant effect on the activity of this assay at concentrations up to 5%; the final DMSO concentration in the wells was no more than 2% and therefore DMSO effects were safely neglected. Assays were performed in white polystyrene 96-well half-area assay plates (Corning, Corning, N.Y.) and measured on a Wallace 1420 fluorescent plate reader (Wallac Oy, Turku, Finland) with an excitation wavelength of 355 nm, an emission wavelength of 460 nm, and a 1 sec signal averaging time.

[2] = test system: HCT116 cells; assay: Whole cell cytotoxicity assay: Sulforhodamine B; assay type: cell-based; details: Homo sapiens, HCT-116; 100 μM compound; 48 hours incubation with drug; Sulforhodamine B staining; read-out: % Inhibition of HCT116 cell growth @ 100 μM
Procedure: [The source words this procedure for another cell line and reports this cell line under the same test.] The following procedure can be found on the Developmental Therapeutics Program NCl/NIH web site at http://dtp.nci.nih.gov/brancehes/btb/ivclsp.html. • 1. Human tumor cell lines of HT29, A549 and MCF7 are grown in DMEM containing 10% fetal bovine serum and 2 mM L-glutamine. Cells are plated in a 96 well plate at a density of 5000 cells per well in 100 μL of growth medium and incubated at 37° C., 5% CO2, for 24 hours prior to the addition of experimental compounds. • 2. Experimental drugs are solubilized in DMSO for a final concentration of 20 mM immediately prior to use. Drugs are further diluted in growth media for a total of nine drug concentrations and a growth control. At the 24 hour time point, one plate of cells is fixed in situ with TCA as a measurement of the cell population at time zero, or the time of drug addition. • 3. The plates are further incubated with drug for an additional 48 hours. • 4. The cells are fixed in situ by gently aspirating off the culture media and then adding 50 μL of ice cold 10% TCA per well and incubated at 4° C. for 60 minutes. The plates are washed with tap water five times and allowed to air dry for 5 minute. • 5. 50 μL of a 0.4% (w/v) Sulforhodamine B solution in 1% (v/v) acetic acid is added per well and incubated for 30 minutes at room temperature. • 6. Following staining, plates are washed five times with 1% acetic acid to remove any unbound dye and then allowed to air dry for 5 minutes. • 7. Stain is solubilized with 100 μL of 10 mM Tris pH 10.5 per well and placed on an orbital rotator for 5 minutes. • 8. Absorbance is read at 570 nm.

Row | Compound | % Inhibition of HDAC @ 100 μM [1] | inhibition at 100 µM [2]
1 | COc1ccc2[nH]c3c(c2c1)CN(c1ncc(C(=O)NO)cn1)CC3 [Example 57, N-hydroxy-2-(8-methoxy-1,3,4,5-tetrahydro-2H-pyrido[4,3-b]indol-2-yl)pyrimidine-5-carboxamide] | 99.9% | 98.2%
2 | CN1CCN(Cc2ccc(-c3ccc4[nH]c5c(c4c3)CN(c3ncc(C(=O)NO)cn3)CC5)cc2)CC1 [Example 106, N-hydroxy-2-{8-[4-((4-methylpiperazin-1-yl)methyl)phenyl]-1,3,4,5-tetrahydro-2H-pyrido[4,3-b]indol-2-yl}pyrimidine-5-carboxamide] | 99.9% | 98.3%
3 | O=C(NO)c1cnc(N2CCc3c(oc4ccccc34)C2)nc1 [Example 119, 2-(3,4-dihydro[1]benzofuro[2,3-c]pyridin-2(1)-yl)-N-hydroxypyrimidine-5-carboxamide] | 99.3% | 98.6%
4 | CC(C)(C)c1ccc2[nH]c3c(c2c1)CN(c1ncc(C(=O)NO)cn1)CC3 [Example 39, N-hydroxy-2-{8-tert-butyl-1,3,4,5-tetrahydro-2H-pyrido[4,3-b]indol-2-yl}pyrimidine-5-carboxamide] | 98.8% | 99.4%
5 | CN1CCN(Cc2ccc3[nH]c4c(c3c2)CN(c2ncc(C(=O)NO)cn2)CC4)CC1 [Example 123, N-hydroxy-2-{8-[(4-methylpiperazin-1-yl)methyl]-1,3,4,5-tetrahydro-2H-pyrido[4,3-b]indol-2-yl}pyrimidine-5-carboxamide] | 100% | 97%
6 | O=C(NO)c1cnc(N2CCc3[nH]c4ccc(-c5cncnc5)cc4c3C2)nc1 [Example 51, N-hydroxy-2-{8-(pyrimidin-5-yl)-1,3,4,5-tetrahydro-2H-pyrido[4,3-b]indol-2-yl}pyrimidine-5-carboxamide] | 99.8% | 98.7%
7 | Cc1ccc2c(c1)C1CCN(c3ncc(C(=O)NO)cn3)CC1N2 (stereo not drawn) [Example 67, N-hydroxy-2-(6-methyl-1,3,4,4a,9,9a-hexahydro-2H-b-carbolin-2-yl)pyrimidine-5-carboxamide] | 99.9% | 98.2%
8 | COc1cc2c(cc1OC)CN(c1ccc(C(=O)NO)cn1)CC2 [Example 5, 6-(6,7-dimethoxy-3,4-dihydroisoquinolin-2(1H)-yl)-N-hydroxynicotinamide] | 99.7% | 99.9%
9 | O=C(NO)c1cnc(N2CCc3[nH]c4ccc(-c5cccc(CN6CCNCC6)c5)cc4c3C2)nc1 [Example 99, N-hydroxy-2-{8-[3-(piperazin-1-ylmethyl)phenyl]-1,3,4,5-tetrahydro-2H-pyrido[4,3-b]indol-2-yl}pyrimidine-5-carboxamide] | 99.9% | 93.8%
10 | O=C(NO)c1cnc(N2CCc3[nH]c4ccc(C(F)(F)F)cc4c3C2)nc1 [Example 55, N-hydroxy-2-(8-trifluoromethyl-1,3,4,5-tetrahydro-2H-pyrido[4,3-b]indol-2-yl)pyrimidine-5-carboxamide] | 99.3% | 99.1%
11 | O=C(NO)c1cnc(N2CCc3c([nH]c4ccc(OCc5ccccc5)cc34)C2)nc1 [Example 64, N-hydroxy-2-(6-benzyloxy-1,3,4,9-tetrahydro-2H-b-carbolin-2-yl)pyrimidine-5-carboxamide] | 99.9% | 98.7%
12 | O=C(NO)c1cnc(N2CCc3[nH]c4ccc(-c5cccc(CN(CCO)CCO)c5)cc4c3C2)nc1 [Example 95, N-hydroxy-2-{8-[3-(N,N-di(2-hydroxyethyl)aminomethyl)phenyl]-1,3,4,5-tetrahydro-2H-pyrido[4,3-b]indol-2-yl}pyrimidine-5-carboxamide] | 100% | 98.2%
13 | O=C(NO)c1cnc(N2CCc3[nH]c4ccc(-c5ccc(F)cc5)cc4c3C2)nc1 [Example 45, N-hydroxy-2-{8-[4-fluorophenyl]-1,3,4,5-tetrahydro-2H-pyrido[4,3-b]indol-2-yl}pyrimidine-5-carboxamide] | 99.9% | 98.9%
14 | CN1CCN(Cc2ccc(-c3ccc4[nH]c5c(c4c3)CCN(c3ncc(C(=O)NO)cn3)C5)cc2)CC1 [Example 72, N-hydroxy-2-{6-[4-((4-methylpiperazin-1-yl)methyl)phenyl]-1,3,4,9-tetrahydro-2H-b-carbolin-2-yl}pyrimidine-5-carboxamide] | 99.8% | 95.6%
15 | COc1ccc2c(c1)CN(c1ncc(C(=O)NO)cn1)CC2 [Example 31, 2-(7-methoxy-3,4,dihydroisoquinolin-2(1H)-yl)-N-hydroxypyrimidine-5-carboxamide] | 100% | 99.5%
16 | O=C(/C=C/c1ccc(N2CCc3c([nH]c4ccccc34)C2)cc1)NO [Example 22, (2E)-N-hydroxy-3-[4-(1,3,4,9-tetrahydro-2H-b-carbolin-2-yl)phenyl]acrylamide] | 98.2% | 98.2%
17 | O=C(NO)c1cnc(N2CCc3[nH]c4ccc(-c5cccc(CN6CCCC6)c5)cc4c3C2)nc1 [Example 97, N-hydroxy-2-{8-[3-(pyrrolidin-1-ylmethyl)phenyl]-1,3,4,5-tetrahydro-2H-pyrido[4,3-b]indol-2-yl}pyrimidine-5-carboxamide] | 100% | 98.1%
18 | O=C(NO)c1cnc(N2CCc3[nH]c4ccc(-c5cccc(CN6CCOCC6)c5)cc4c3CC2)nc1 [Example 116, N-hydroxy-2-(9-[3-(morpholin-4-ylmethy)phenyl]-1,4,5,6-tetrahydroazepino[4,5-b]indol-3(2H)-1-yl)pyrimidine-5-carboxamide] | 100% | 98.6%
19 | CN1CCN(Cc2ccc(-c3ccc4[nH]c5c(c4c3)CN(c3ncc(C(=O)NO)cn3)CC5)o2)CC1 [Example 108, N-hydroxy-2-{8-[5-((4-methylpiperazin-1-yl)methyl)-2-furyl]-1,3,4,5-tetrahydro-2H-pyrido[4,3-b]indol-2-yl}pyrimidine-5-carboxamide] | 100% | 99.1%
20 | O=C(NO)c1cnc(N2CCc3[nH]c4cc(F)ccc4c3C2)nc1 [Example 35, N-hydroxy-2-(7-fluoro-1,3,4,5-tetrahydro-2H-pyrido[4,3-b]indol-2-yl)pyrimidine-5-carboxamide] | 99.9% | 97.3%
21 | CN1CCN(Cc2ccc(-c3ccc4[nH]c5c(c4c3)CN(c3ncc(C(=O)NO)cn3)CC5)s2)CC1 [Example 110, N-hydroxy-2-{8-[5-((4-methylpiperazin-1-yl)methyl)-thien-2-yl]-1,3,4,5-tetrahydro-2H-pyrido[4,3-b]indol-2-yl}pyrimidine-5-carboxamide] | 100% | 98.7%
22 | O=C(NO)c1cnc(N2CCc3[nH]c4cc(-c5ccccc5)ccc4c3C2)nc1 [Example 120, N-hydroxy-2-{7-phenyl-1,3,4,5-tetrahydro-2H-pyrido[4,3-b]indol-2-yl}pyrimidine-5-carboxamide] | 99.6% | 97.6%
23 | O=C(/C=C/c1ccc(CN2CCc3c([nH]c4ccccc34)C2)s1)NO [Example 3, (2E)-N-hydroxy-3-[5-(1,3,4,9-tetrahydro-2H-b-carbolin-2-ylmethyl)thien-2-yl]acrylamide] | 97.9% | 98.3%
24 | CN1CCN(Cc2cccc(-c3ccc4[nH]c5c(c4c3)CCN(c3ncc(C(=O)NO)cn3)CC5)c2)CC1 [Example 117, N-hydroxy-2-(9-[3-((4-methylpiperazin-1-yl)methy)phenyl]-1,4,5,6-tetrahydroazepino[4,5-b]indol-3(2H)-1-yl)pyrimidine-5-carboxamide] | 99.8% | 98.6%
